Laboratory results taken from patent US10092575B2, “Substituted thiophene- and furan-fused azolopyrimidine-5-(6H)-one compounds” (DART NEUROSCIENCE (CAYMAN) LTD., priority 2012, dated 2018).
pEC50: −log10 of the molar value.

Target: human PDE1b enzyme (Homo sapiens (Human), UniProt Q01064)
Experiment: PDE1b inhibitory assay (IMAP TR-FRET)
Conditions: not given

Q: How did the pEC50 turn out when `COc1ccc(Cn2c(=O)n3ncnc3c3cc(CN4CC(O)C4)sc32)c(F)c1F` [Example 212, 6-(2,3-Difluoro-4-methoxybenzyl)-8-((3-hydroxyazetidin-1-yl)methyl)thieno[3,2-e][1,2,4]triazolo[1,5-c]pyrimidin-5(6H)-one] was run?
A: 6.00 to 7.00

Q: How did the pEC50 turn out when `Cc1cc2c(s1)n(Cc1ccccc1)c(=O)n1ncnc21` [Example 12, 6-Benzyl-8-methylthieno[3,2-e][1,2,4]triazolo[1,5-c]pyrimidin-5(6H)-one] was run?
A: 5.00 to 6.00

Q: With `O=c1n(Cc2ccc(Cl)cc2)c2sc(Cc3ccccc3)cc2c2ncnn12` [Example 22, 8-Benzyl-6-(4-chlorobenzyl)thieno[3,2-e][1,2,4]triazolo[1,5-c]pyrimidin-5(6H)-one] as the molecule, how does the pEC50 read?
A: 6.00 to 7.00

Q: With `COc1ccc(Cn2c(=O)n3ncnc3c3cc(CNCC4(C)COC4)sc32)cc1` [Example 211] as the molecule, how does the pEC50 read?
A: 6.00 to 7.00

Q: `O=c1n(Cc2ccc(-c3ccccc3)cc2)c2sc3c(c2c2ncnn12)CCCC3` [Example 86, 6-([1,1′-Biphenyl]-4-ylmethyl)-8,9,10,11-tetrahydrobenzo[4,5]thieno[3,2-e][1,2,4]triazolo[1,5-c]pyrimidin-5(6H)-one] was tested. Which pEC50 did it give?
A: 5.00 to 6.00

Q: With `COc1ccc(Cn2c(=O)n3ncnc3c3cc(CN4CCN(C)CC4)sc32)cc1` [Example 32, 6-(4-Methoxybenzyl)-8-((4-methylpiperazin-1-yl)methyl)thieno[3,2-e][1,2,4]triazolo[1,5-c]pyrimidin-5(6H)-one] as the molecule, how does the pEC50 read?
A: 6.00 to 7.00

Q: How did the pEC50 turn out when `Cc1csc2c1c1ncnn1c(=O)n2Cc1ccc(Cl)cc1` [Example 3, 6-(4-Chlorobenzyl)-9-methylthieno[3,2-e][1,2,4]triazolo[1,5-c]pyrimidin-5(6H)-one] was run?
A: 6.00 to 7.00

Q: With `O=c1n(Cc2ccc(Cl)cc2)c2sccc2c2ncnn12` [Example 5, 6-(4-Chlorobenzyl)thieno[3,2-e][1,2,4]triazolo[1,5-c]pyrimidin-5(6H)-one] as the molecule, how does the pEC50 read?
A: 6.00 to 7.00

Q: `CCOc1ccc(Cn2c(=O)n3ncnc3c3c4c(sc32)COCC4)cc1` [Example 97, 6-(4-Ethoxybenzyl)-6,8,10,11-tetrahydro-5H-pyrano[4′,3′:4,5]thieno[3,2-e][1,2,4]triazolo[1,5-c]pyrimidin-5-one] was tested. Which pEC50 did it give?
A: 5.00 to 6.00

Same assay, conditions: negative log of half-maximal molar inhibitory concentration; 200 nM FAM-cAMP; reported as ranges

Q: With `COc1ccc(Cn2c(=O)n3ncnc3c3c(C)c(CN4Cc5ccccc5C4)sc32)cc1` [Example 56, 8-(Isoindolin-2-ylmethyl)-6-(4-methoxybenzyl)-9-methylthieno[3,2-e][1,2,4]triazolo[1,5-c]pyrimidin-5(6H)-one] as the molecule, how does the “PDE1b (pEC50)” value read?
A: >7

Q: With `COc1ccc(Cn2c(=O)n3ncnc3c3c4c(sc32)CNCCC4)cc1` [Example 217, 6-(4-Methoxybenzyl)-6,8,9,10,11,12-hexahydro-5H-[1,2,4]triazolo[1″,5″:1′,6′]pyrimido[5′,4′:4,5]thieno[2,3-c]azepin-5-one] as the molecule, how does the “PDE1b (pEC50)” value read?
A: >7

Q: `COc1ccc(Cn2c(=O)n3ncnc3c3cc(CN4CCN(S(C)(=O)=O)CC4)sc32)cc1` [Example 35, 6-(4-Methoxybenzyl)-8-((4-(methylsulfonyl)piperazin-1-yl)methyl)thieno[3,2-e][1,2,4]triazolo[1,5-c]pyrimidin-5(6H)-one] was tested. Which “PDE1b (pEC50)” value did it give?
A: >7

Q: With `COc1ccc(Cn2c(=O)n3ncnc3c3c4c(sc32)CN(CC2CCOCC2)CC4(F)F)c(F)c1` [Example 156, 11,11-Difluoro-6-(2-fluoro-4-methoxybenzyl)-9-((tetrahydro-2H-pyran-4-yl)methyl)-8,9,10,11-tetrahydropyrido[4′,3′:4,5]thieno[3,2-e][1,2,4]triazolo[1,5-c]pyrimidin-5(6H)-one] as the molecule, how does the “PDE1b (pEC50)” value read?
A: >7

Q: How did the “PDE1b (pEC50)” value turn out when `Cn1ccnc1CN1CCc2c(sc3c2c2ncnn2c(=O)n3Cc2ccc(Cl)cc2F)C1` [Example 131] was run?
A: >7

Q: For `COc1ccc(Cn2c(=O)n3ncnc3c3c4c(sc32)CN(Cc2ncccn2)CC4)c(F)c1` [Example 137, 6-(2-Fluoro-4-methoxybenzyl)-9-(pyrimidin-2-ylmethyl)-8,9,10,11-tetrahydropyrido[4′,3′:4,5]thieno[3,2-e][1,2,4]triazolo[1,5-c]pyrimidin-5 (6H)-one], which “PDE1b (pEC50)” value is on record?
A: >7
